Experimental data reported in PubChem BioAssay (NCI).
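Exposure lasted 48 hours, with cells grown in 96-well plates and compounds tested at five concentrations. TGI denotes the concentration required for complete inhibition of growth.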

Legend:
Assay in all cases: DTP human tumour cell line panel, 48 h
TK-10 renal = tested on: TK-10 renal
CAKI-1 renal = tested on: CAKI-1 renal
T-47D breast = tested on: T-47D breast
OVCAR-8 ovarian = tested on: OVCAR-8 ovarian
DU-145 prostate = tested on: DU-145 prostate
NCI-H23 lung = tested on: NCI-H23 lung
786-0 renal = tested on: 786-0 renal
PC-3 prostate = tested on: PC-3 prostate
SK-MEL-5 melanoma = tested on: SK-MEL-5 melanoma
HS 578T breast = tested on: HS 578T breast
UACC-257 melanoma = tested on: UACC-257 melanoma
SNB-19 CNS = tested on: SNB-19 CNS
HL-60(TB) leukemia = tested on: HL-60(TB) leukemia
MALME-3M melanoma = tested on: MALME-3M melanoma
SK-OV-3 ovarian = tested on: SK-OV-3 ovarian
NCI-H460 lung = tested on: NCI-H460 lung
ACHN renal = tested on: ACHN renal
A498 renal = tested on: A498 renal
K-562 leukemia = tested on: K-562 leukemia
M14 melanoma = tested on: M14 melanoma
MDA-N = tested on: MDA-N
LOX IMVI melanoma = tested on: LOX IMVI melanoma
MCF7 breast = tested on: MCF7 breast
COLO 205 colon = tested on: COLO 205 colon
RPMI-8226 leukemia = tested on: RPMI-8226 leukemia
HCT-15 colon = tested on: HCT-15 colon
SW-620 colon = tested on: SW-620 colon
EKVX NSCLC = tested on: EKVX NSCLC
A549 NSCLC = tested on: A549 NSCLC
OVCAR-3 ovarian = tested on: OVCAR-3 ovarian
IGROV1 ovarian = tested on: IGROV1 ovarian
HOP-92 NSCLC = tested on: HOP-92 NSCLC
U251 CNS = tested on: U251 CNS
MDA-MB-435 = tested on: MDA-MB-435
SF-539 CNS = tested on: SF-539 CNS
SK-MEL-28 melanoma = tested on: SK-MEL-28 melanoma
SF-268 CNS = tested on: SF-268 CNS
NCI-H522 lung = tested on: NCI-H522 lung
HT29 colon = tested on: HT29 colon
SN12C renal = tested on: SN12C renal
SNB-75 CNS = tested on: SNB-75 CNS
KM12 colon = tested on: KM12 colon
MOLT-4 leukemia = tested on: MOLT-4 leukemia
OVCAR-4 ovarian = tested on: OVCAR-4 ovarian
NCI-H226 lung = tested on: NCI-H226 lung
NCI/ADR-RES ovarian = tested on: NCI/ADR-RES ovarian
HOP-62 NSCLC = tested on: HOP-62 NSCLC
SK-MEL-2 melanoma = tested on: SK-MEL-2 melanoma
SF-295 CNS = tested on: SF-295 CNS
HCT-116 colon = tested on: HCT-116 colon
MDA-MB-231 breast = tested on: MDA-MB-231 breast
OVCAR-5 ovarian = tested on: OVCAR-5 ovarian
SR leukemia = tested on: SR leukemia
UO-31 renal = tested on: UO-31 renal
BT-549 breast = tested on: BT-549 breast
CCRF-CEM leukemia = tested on: CCRF-CEM leukemia
HCC-2998 colon = tested on: HCC-2998 colon
RXF 393 renal = tested on: RXF 393 renal
UACC-62 melanoma = tested on: UACC-62 melanoma

Structure (SMILES): Cc1ccc(Nc2ncnc3sc(SCc4ccccc4)nc23)cc1
- TGI (TK-10 renal): > 100 µM
- TGI (CAKI-1 renal): > 100 µM
- TGI (T-47D breast): > 100 µM
- TGI (OVCAR-8 ovarian): > 100 µM
- TGI (DU-145 prostate): > 100 µM
- TGI (NCI-H23 lung): > 100 µM
- TGI (786-0 renal): > 100 µM
- TGI (PC-3 prostate): > 100 µM
- TGI (SK-MEL-5 melanoma): > 100 µM
- TGI (HS 578T breast): > 100 µM
- TGI (UACC-257 melanoma): > 100 µM
- TGI (SNB-19 CNS): > 100 µM
- TGI (HL-60(TB) leukemia): > 100 µM
- TGI (MALME-3M melanoma): > 100 µM
- TGI (SK-OV-3 ovarian): > 100 µM
- TGI (NCI-H460 lung): > 100 µM
- TGI (ACHN renal): > 100 µM
- TGI (A498 renal): > 100 µM
- TGI (K-562 leukemia): > 100 µM
- TGI (M14 melanoma): > 100 µM
- TGI (MDA-N): > 100 µM
- TGI (LOX IMVI melanoma): > 100 µM
- TGI (MCF7 breast): > 100 µM
- TGI (COLO 205 colon): > 100 µM
- TGI (RPMI-8226 leukemia): > 100 µM
- TGI (HCT-15 colon): > 100 µM
- TGI (SW-620 colon): > 100 µM
- TGI (EKVX NSCLC): > 100 µM
- TGI (A549 NSCLC): > 100 µM
- TGI (OVCAR-3 ovarian): > 100 µM
- TGI (IGROV1 ovarian): > 100 µM
- TGI (HOP-92 NSCLC): > 100 µM
- TGI (U251 CNS): > 100 µM
- TGI (MDA-MB-435): > 100 µM
- TGI (SF-539 CNS): > 100 µM
- TGI (SK-MEL-28 melanoma): > 100 µM
- TGI (SF-268 CNS): > 100 µM
- TGI (NCI-H522 lung): > 100 µM
- TGI (HT29 colon): > 100 µM
- TGI (SN12C renal): > 100 µM
- TGI (SNB-75 CNS): > 100 µM
- TGI (KM12 colon): > 100 µM
- TGI (MOLT-4 leukemia): > 100 µM
- TGI (OVCAR-4 ovarian): > 100 µM
- TGI (NCI-H226 lung): > 100 µM
- TGI (NCI/ADR-RES ovarian): > 100 µM
- TGI (HOP-62 NSCLC): > 100 µM
- TGI (SK-MEL-2 melanoma): > 100 µM
- TGI (SF-295 CNS): > 100 µM
- TGI (HCT-116 colon): > 100 µM
- TGI (MDA-MB-231 breast): > 100 µM
- TGI (OVCAR-5 ovarian): > 100 µM
- TGI (SR leukemia): > 100 µM
- TGI (UO-31 renal): > 100 µM
- TGI (BT-549 breast): > 100 µM
- TGI (CCRF-CEM leukemia): > 100 µM
- TGI (HCC-2998 colon): > 100 µM
- TGI (RXF 393 renal): > 100 µM

Structure (SMILES): C=C(C)C1CC2=C(C(=O)OC)C=C(O2)C(C(=C)C)[C@@H]2OC(=O)/C(=C\C1O)[C@H]2N(C)C (some centres not stated)
- TGI (TK-10 renal): 15.7 µM
- TGI (CAKI-1 renal): 21.2 µM
- TGI (T-47D breast): 45.9 µM
- TGI (OVCAR-8 ovarian): 25.8 µM
- TGI (DU-145 prostate): 24.8 µM
- TGI (NCI-H23 lung): 28.8 µM
- TGI (786-0 renal): 21 µM
- TGI (PC-3 prostate): 24.5 µM
- TGI (SK-MEL-5 melanoma): 27.9 µM
- TGI (HS 578T breast): 44.2 µM
- TGI (UACC-257 melanoma): 37.1 µM
- TGI (SNB-19 CNS): 50.9 µM
- TGI (HL-60(TB) leukemia): > 24.2 µM
- TGI (MALME-3M melanoma): 34.5 µM
- TGI (SK-OV-3 ovarian): 64.1 µM
- TGI (NCI-H460 lung): 31.4 µM
- TGI (ACHN renal): 24 µM
- TGI (A498 renal): 31.3 µM
- TGI (K-562 leukemia): > 100 µM
- TGI (M14 melanoma): 29.7 µM
- TGI (MDA-N): 25.8 µM
- TGI (LOX IMVI melanoma): 24.2 µM
- TGI (MCF7 breast): 24.9 µM
- TGI (COLO 205 colon): 29 µM
- TGI (RPMI-8226 leukemia): 14.9 µM
- TGI (HCT-15 colon): 22.5 µM
- TGI (SW-620 colon): 30.3 µM
- TGI (EKVX NSCLC): 29 µM
- TGI (A549 NSCLC): 30.8 µM
- TGI (OVCAR-3 ovarian): 25.7 µM
- TGI (IGROV1 ovarian): 20.9 µM
- TGI (HOP-92 NSCLC): 20.2 µM
- TGI (U251 CNS): 33 µM
- TGI (MDA-MB-435): 25 µM
- TGI (SF-539 CNS): 22.9 µM
- TGI (SK-MEL-28 melanoma): 27.8 µM
- TGI (SF-268 CNS): 32.9 µM
- TGI (NCI-H522 lung): 10.3 µM
- TGI (UACC-62 melanoma): 28.3 µM
- TGI (HT29 colon): > 100 µM
- TGI (SN12C renal): 28.5 µM
- TGI (SNB-75 CNS): 30.4 µM
- TGI (KM12 colon): 28 µM
- TGI (MOLT-4 leukemia): > 22.7 µM
- TGI (OVCAR-4 ovarian): 21 µM
- TGI (NCI-H226 lung): 21.7 µM
- TGI (NCI/ADR-RES ovarian): 26 µM
- TGI (HOP-62 NSCLC): 34.2 µM
- TGI (SK-MEL-2 melanoma): 26.7 µM
- TGI (SF-295 CNS): 32 µM
- TGI (HCT-116 colon): 27.7 µM
- TGI (MDA-MB-231 breast): 43.8 µM
- TGI (OVCAR-5 ovarian): 38 µM
- TGI (SR leukemia): > 41.2 µM
- TGI (UO-31 renal): 26.4 µM
- TGI (BT-549 breast): 24.3 µM
- TGI (CCRF-CEM leukemia): 5.4 µM
- TGI (HCC-2998 colon): 29 µM
- TGI (RXF 393 renal): 15.7 µM
